# Assay results taken from the OPERA property sets (Mansouri et al. 2018).
row,logP,Compound
1,-1.01,Nc1nc(=O)c2ncn([C@H]3CC[C@@H](CO)O3)c2[nH]1
2,0.08,Nc1ncnc2c1ncn2[C@H]1C[C@H](F)[C@@H](CO)O1
3,-0.17,O=c1[nH]c(=O)n([C@H]2C[C@H](F)[C@@H](CO)O2)cc1Cl
4,0.21,O=c1[nH]c(=O)n(C2CC(F)C(CO)O2)cc1I (stereo not given)
5,-0.99,O=c1[nH]c(=O)n(C2CCC(CO)O2)cc1Br (stereo not given)
6,0.24,[N-]=[N+]=N[C@H]1C[C@H](n2cnc3c(N)nc(N)nc32)O[C@@H]1CO
7,-0.52,Nc1nc(N)c2ncn(C3CC(O)C(CO)O3)c2n1 (stereo not given)
8,-0.28,Cc1cn([C@H]2C[C@H](F)[C@@H](CO)O2)c(=O)[nH]c1=O
9,-0.04,O=c1[nH]c(=O)n(C2CC(F)C(CO)O2)cc1Br (stereo not given)
10,-0.61,O=c1[nH]c(=O)n([C@H]2CC[C@@H](CO)O2)cc1I
11,0.05,Nc1nc(N)c2ncn(C3CC(F)C(CO)O3)c2n1 (stereo not given)
12,-1.11,O=c1[nH]c(=O)n([C@H]2CC[C@@H](CO)O2)cc1Cl
13,-1.21,Nc1nc(=O)c2ncn([C@H]3C=C[C@@H](CO)O3)c2[nH]1
14,-1.51,O=c1ccn(C2CC(O)C(CO)O2)c(=O)[nH]1 (stereo not given)
15,-1.07,O=c1ccn([C@H]2C=C[C@@H](CO)O2)c(=O)[nH]1
16,0.35,[N-]=[N+]=N[C@H]1C[C@H](n2cnc3c(N)ncnc32)O[C@@H]1CO
17,-0.66,Nc1nc(=O)c2ncn([C@H]3C[C@H](F)[C@@H](CO)O3)c2[nH]1
18,-0.32,[N-]=[N+]=NC1CC(n2ccc(=O)[nH]c2=O)OC1CO (stereo not given)
19,-0.49,O=c1ccn(C2CC(F)C(CO)O2)c(=O)[nH]1 (stereo not given)

row,Compound,logP
1,[N-]=[N+]=NC1C(CO)OC(n2cnc3c(N)ncnc32)C1N=[N+]=[N-] (stereo not given),0.8
